Laboratory results taken from patent EP4786540A1, “POLYMER COMPOSITION AND METHOD FOR PRODUCING SAME, FORMULATION, CROSSLINKED PRODUCT, AND TIRE” (priority 2023, dated 2025).

Tests used:
[1] = pH of the acid forming the acid component (pH meter, 20°C); format: physicochemical; settings: organic acid 1.0 g in purified water 1.0 L, inorganic acid 0.1-mol/L aqueous solution, for a salt, pH of the acid forming it
Method: No particular limitation is imposed on the acidity of the acid forming the acid component (B), which is specifically the pH of the acid forming the acid component (B) at 20°C, is for example, 1 to 6. […] When the acid component (B) is an inorganic acid, the pH corresponds to a value measured by use of a […] aqueous solution. In the case of a metal salt of the acid, the pH corresponds to the pH of the acid forming the metal salt thereof.
The pH of a liquid prepared by mixing an acid (1.0 g) and purified water (1.0 L) was measured at 20°C by means of a pH meter (product of HORIBA, Ltd.). In the case of an organic acid salt, the pH of the acid forming the salt was measured.
The pH of a 0.1-mol/L aqueous solution of the acid employed was measured at 20°C in the same manner as employed above.

[2] = physchem
Method: The acid component (B) preferably has high solubility in a good solvent for the modified conjugated diene-based polymer (A).
An acid or a metal salt thereof (1.0 g) was added to cyclohexane (1.0 L), and the system was tightly closed. The contents were mixed at 25°C for 5 minutes. The resultant liquid mixture was allowed to stand for 10 minutes, and then the state of the liquid mixture was visually observed.

pH [1]	solubility at 5 min ([2]; 25 °C, organic solvent or mixture, thermodynamic from solid) [µg/mL]	SMILES	solubility in cyclohexane at 25°C ([2]; 1.0 g in 1.0 L cyclohexane, mixed 5 minutes, stood 10 minutes, visual) [µg/mL]
3	–	CCCCC(CC)C(=O)O (centres unmarked) [b-1, 2-ethylhexanonic acid]	–
4	≥ 1000	O=C(O)c1ccccc1C(=O)O [b-2, phthalic acid]	–
–	–	CCCCC(CC)COP(=O)(O)OCC(CC)CCCC (centres unmarked) [b-4, bis(2-ethylhexyl) phosphate]	≥ 1000

SMILES	pH [1]	solubility at 5 min ([2]; 25 °C, organic solvent or mixture, thermodynamic from solid) [µg/mL]	solubility in cyclohexane at 25°C ([2]; 1.0 g in 1.0 L cyclohexane, mixed 5 minutes, stood 10 minutes, visual) [µg/mL]
Cl [b-3, hydrochloric acid]	1	–	–
